Laboratory results: patent US20060002922A1, “Method for preventing or treating obesity by modulating the activities of the pentose phosphate patway” (Minkon Biotechnology, Inc., priority 2004, published 2006)

Key:
tumors in animals = details: 100-400 mg/kg of OT; cited from earlier work
[1] = test system: C57BL/6 mice fed with D12492; test: Diet-induced obesity in C57BL/6 mice fed high fat diet D12492, oral OT; format: in vivo
Method: D12492 is a very high fat containing diet (with 60 kcal % fat), and has been widely used to induce obesity in rodents.
A dose of 10-20 mg/kg/day of OT was administered orally to C57BL/6 mice fed with D12492. […] In contrast, the control mice developed obesity.
4 groups of C57BL/6 mice (5 mice each group) were used to test the dosage dependence of oxythiamine on weight control. The negative control was fed a regular diet, and positive group was fed a high fat diet only. Test groups were fed high fat diet and each orally administered with OT at a concentration of 2 mg/kg/day or 10 mg/kg/day.

[2] = test system: liver, heart and kidney of mice hosting Ehrlich's tumor; details: 400 mg/kg/day of OT; cited from earlier work
[3] = test system: normal as well as fatty mice; test: Higher dosage of OT: weight loss in normal and fatty mice; format: in vivo
Text: This is consistent with the result obtained from the published result of TKT haplo-insufficiency mice.

Q: With Cc1ncc(C[n+]2csc(CCO)c2C)c(=O)[nH]1 [OT, Oxythiamine] as the molecule, how does the “treatment of tumors in animals” value (tumors in animals) read?
A: successfully used to treat tumors

Q: And the “development of diet-induced obesity” value ([1]; 10-20 mg/kg/day orally, C57BL/6 mice fed D12492, control mice developed obesity)?
A: Diet-induced obesity was not developed

Q: What about the “pathological studies of OT treated mice” value ([1]; FIG. 1 study, high fat diet plus OT) of the same molecule?
A: near normal

Q: And the “progression of obesity development” value ([1]; OT as low as 2 mg/kg/day)?
A: reduce the progression of obesity development significantly

Q: And the “dosage dependence of prevention of weight gain” value ([1]; mice fed D12492, test groups 2 or 10 mg/kg/day orally)?
A: dosage dependent effects on preventing weight gain

Q: What about the “growth rate compared to same age mice fed a standard diet” value ([1]; mice fed D12492 plus OT) of the same molecule?
A: normal growth rate

Q: And the “histotoxicity (signs of toxicity in liver, heart and kidney vs controls)” value [2]?
A: No signs of toxicity were observed

Q: What about the “effect on body weight” value ([3]; 180 mg/kg/day, normal as well as fatty mice) of the same molecule?
A: strong effect of weight loss

Q: What about the fat mass ([3]; OT fed mice) of the same molecule?
A: Preferential reduction of fat mass
